The values that follow come from ChEMBL document CHEMBL1833968, “Synthesis of novel triplet drugs with 1,3,5-trioxazatriquinane skeletons and their pharmacologies. Part 2: Synthesis of novel triplet drugs with the epoxymethano structure (capped homotriplet)” (Bioorg Med Chem Lett, 2011).

The species named for assay [1] is Mus musculus. The experiment in a line: Selectivity ratio of Ki for mouse delta opioid receptor to mouse mu receptor.
Assay [2] concerns the target Delta-type opioid receptor (Mus musculus, UniProt P32300). The assay is described as follows: Displacement of [3H]DPDPE from mouse delta opioid receptor in whole brain without cerebellum.
A short description of assay [3]: Selectivity ratio of Ki for guinea pig kappa opioid receptor to mouse mu opioid receptor.
The next assay has as its target Mu-type opioid receptor (Mus musculus, UniProt P42866). The experiment in a line: Displacement of [3H]DAMGO from mouse mu opioid receptor in whole brain without cerebellum.
The target in assay [4] is Kappa-type opioid receptor (Cavia porcellus, UniProt P41144). The experiment in a line: Displacement of [3H]U69,593 from guinea pig kappa opioid receptor in cerebellum.
Assay [5] concerns Mus musculus. The assay is described as follows: Antinociceptive activity in sc dosed mouse assessed as inhibition of acetic acid-induced writhing administered 15 mins before acetic acid challenge measured after 10 mins relative to control. It counts as functional.
Assay [6] concerns Mus musculus. The experiment in a line: Ratio of morphine ED50 to compound ED50 for antinociceptive activity in sc dosed mouse assessed as inhibition of acetic acid-induced writhing administered 15 mins before acetic acid challenge measured after 10 mins. It counts as functional.

Calls of active or inactive are those of the source. No cut-off for these calls is given here.

Sequence of Delta-type opioid receptor (P32300 whole entry): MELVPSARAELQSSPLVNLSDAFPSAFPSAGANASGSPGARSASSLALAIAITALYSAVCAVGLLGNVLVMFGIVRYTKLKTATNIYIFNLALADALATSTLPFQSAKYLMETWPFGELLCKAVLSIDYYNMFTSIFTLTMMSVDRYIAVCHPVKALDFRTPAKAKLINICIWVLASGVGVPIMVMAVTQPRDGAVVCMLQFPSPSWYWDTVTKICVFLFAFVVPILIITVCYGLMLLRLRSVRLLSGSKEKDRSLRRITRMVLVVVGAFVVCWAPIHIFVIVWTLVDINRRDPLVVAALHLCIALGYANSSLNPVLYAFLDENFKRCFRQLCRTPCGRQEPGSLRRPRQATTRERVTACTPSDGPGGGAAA
Sequence of Kappa-type opioid receptor (P41144 whole entry): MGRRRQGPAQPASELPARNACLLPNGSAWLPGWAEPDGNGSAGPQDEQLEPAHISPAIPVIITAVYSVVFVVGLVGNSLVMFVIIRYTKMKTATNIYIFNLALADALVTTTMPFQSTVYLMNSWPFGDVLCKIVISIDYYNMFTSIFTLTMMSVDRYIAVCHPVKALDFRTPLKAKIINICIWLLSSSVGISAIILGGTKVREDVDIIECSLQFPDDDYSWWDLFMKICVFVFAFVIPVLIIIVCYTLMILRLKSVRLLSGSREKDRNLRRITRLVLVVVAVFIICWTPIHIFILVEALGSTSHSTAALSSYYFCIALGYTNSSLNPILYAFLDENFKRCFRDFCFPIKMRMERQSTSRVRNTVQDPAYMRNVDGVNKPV
Sequence of Mu-type opioid receptor (P42866 whole entry): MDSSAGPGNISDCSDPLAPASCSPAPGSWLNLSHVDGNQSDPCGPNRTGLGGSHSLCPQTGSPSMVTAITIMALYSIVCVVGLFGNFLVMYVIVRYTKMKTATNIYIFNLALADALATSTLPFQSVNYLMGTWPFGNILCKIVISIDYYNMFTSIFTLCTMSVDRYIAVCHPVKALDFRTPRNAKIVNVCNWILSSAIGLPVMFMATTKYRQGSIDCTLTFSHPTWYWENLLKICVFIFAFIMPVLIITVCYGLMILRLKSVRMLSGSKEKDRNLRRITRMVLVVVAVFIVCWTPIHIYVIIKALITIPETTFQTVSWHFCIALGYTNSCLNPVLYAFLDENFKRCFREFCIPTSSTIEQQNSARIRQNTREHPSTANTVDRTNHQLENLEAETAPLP

As to `Oc1ccc2c3c1O[C@H]1[C@]4(CC[C@H]5[C@@H](C2)N(CC2CC2)CC[C@@]351)O[C@H]1CO[C@@H]2N1[C@H]4O[C@]21CC[C@H]2[C@H]3Cc4ccc(O)c5c4[C@@]2(CCN3CC2CC2)[C@H]1O5`, the figures for the Ratio Ki (in the assay listed under Mus musculus [1]; in assay [3]) were 10.8 and 8.84, respectively. The Ki was determined as 7.8 nM in assay [2], 0.719 nM at Mu-type opioid receptor and 6.36 nM in assay [4].
Turning to `C=CCN1CC[C@]23c4c5ccc(O)c4O[C@H]2C(=O)CC[C@@]3(O)[C@H]1C5`, the inhibition result in the assay on Mus musculus [5] is “inactive”.
`Oc1ccc2c3c1O[C@H]1[C@]4(CC[C@@]5(O)[C@@H](C2)N(CC2CCC2)CC[C@]315)O[C@H]1CO[C@@H]2N1[C@H]4O[C@]21CC[C@@]2(O)[C@H]3Cc4ccc(O)c5c4[C@@]2(CCN3CC2CCC2)[C@H]1O5`: the Ratio Ki in the assay listed under Mus musculus [1] was found to be 19.2; in assay [3], 67.7. In addition, the Ki in assay [2] was determined as 50 nM; on Mu-type opioid receptor it was 2.6 nM; in assay [4], 176 nM.
As for `Oc1ccc2c3c1O[C@H]1[C@]4(CC[C@@]5(O)[C@@H](C2)N(CC2CC2)CC[C@]315)O[C@H]1CO[C@@H]2N1[C@H]4O[C@]21CC[C@@]2(O)[C@H]3Cc4ccc(O)c5c4[C@@]2(CCN3CC2CC2)[C@H]1O5`, the Ratio Ki in the assay filed under Mus musculus [1] came out at 33.6; in assay [3], 5.73. Besides, the Ki in assay [2] is 16.2 nM; on Mu-type opioid receptor, 0.48 nM; in assay [4], 2.75 nM.
In the same order, the values of `Oc1ccc2c(c1)[C@]13CCN(CC4CC4)[C@H](C2)[C@]1(O)CC[C@@]1(C3)O[C@H]2CO[C@@H]3N2[C@H]1O[C@]31CC[C@@]2(O)[C@H]3Cc4ccc(O)cc4[C@@]2(CCN3CC2CC2)C1` are 7.76, 11.2, 5.98 nM, 0.771 nM and 8.67 nM.
As to `CN1CC[C@]23c4c5ccc(O)c4O[C@H]2[C@]2(CC[C@@]3(O)[C@H]1C5)O[C@H]1CO[C@@H]3N1[C@H]2O[C@]31CC[C@@]2(O)[C@H]3Cc4ccc(O)c5c4[C@@]2(CCN3C)[C@H]1O5`, the 50% effective dose (ED50) with Mus musculus [5] amounted to 0.14 mg/kg. In addition, the inhibition result with Mus musculus [5] was “Dose-dependent effect”. Also, the Ratio Ki was 25.3 in the assay filed under Mus musculus [1] and 161 in assay [3]. Also, the Ki in assay [2] is 52.9 nM; at Mu-type opioid receptor, 2.09 nM; in assay [4], 337 nM. Besides, the “Ratio ED50” value with Mus musculus [6] came to 4.
For `Oc1ccc2c3c1O[C@@H]1[C@]34CCN(CC3CC3)[C@H](C2)[C@]4(O)CC[C@@]12C=N[C@H]([C@]1(O)CC[C@@]3(O)[C@H]4Cc5ccc(O)c6c5[C@@]3(CCN4CC3CC3)[C@H]1O6)O2`, the Ratio Ki came to 28.3 in the assay listed under Mus musculus [1] and 0.61 in assay [3]. In addition, the Ki in assay [2] worked out at 53.7 nM; on Mu-type opioid receptor, 1.9 nM; in assay [4], 1.16 nM.
Take `CC(C)CN1CC[C@]23c4c5ccc(O)c4O[C@H]2[C@]2(CC[C@@]3(O)[C@H]1C5)O[C@H]1CO[C@@H]3N1[C@H]2O[C@]31CC[C@@]2(O)[C@H]3Cc4ccc(O)c5c4[C@@]2(CCN3CC(C)C)[C@H]1O5`: the figures for the Ki (in assay [2]; on Mu-type opioid receptor; in assay [4]) were > 1000 nM, 25.3 nM and 119 nM, respectively. Besides, the Ratio Ki in assay [3] was 4.7.
Take `Oc1ccc2c3c1O[C@@H]1[C@]34CCN(CC3CC3)[C@H](C2)[C@]4(O)CC[C@@]12C=N[C@@H]([C@]1(O)CC[C@@]3(O)[C@H]4Cc5ccc(O)c6c5[C@@]3(CCN4CC3CC3)[C@H]1O6)O2`: the Ratio Ki in the assay listed under Mus musculus [1] was 38.4; in assay [3], 1.61. For the same compound, the Ki in assay [2] was 39.6 nM; on Mu-type opioid receptor, 1.03 nM; in assay [4], 1.66 nM.
Take `Oc1ccc2c3c1O[C@H]1[C@]4(CC[C@@]5(O)[C@@H](C2)N(CC2CC2)CC[C@]315)O[C@@H]1CO[C@H]2N1[C@@H]4O[C@]21CC[C@@]2(O)[C@H]3Cc4ccc(O)c5c4[C@@]2(CCN3CC2CC2)[C@H]1O5`: the inhibition constant Ki in assay [2] was > 1000 nM; at Mu-type opioid receptor, 38.2 nM; in assay [4], 247 nM. Also, the Ratio Ki in assay [3] was 6.47.
